Bridge positions count the residues as written; N and C are the ends. Peptide text beside a SMILES is read from it.
Target: T1, hNaV1.7 (Homo sapiens, UniProt Q15858)
T1 construct: expressed in transfected cells; host or cells: HEK 293
Experiment: Whole-cell patch clamp on hNaV1.7 expressed in HEK 293 cells
Format: cell-based
Settings: for IC50: HEK 293 cells transfected with hNaV1.7 plus human β1 and β2 subunits, room temperature (20–25 °C), 50 ms depolarization to −10 mV from holding −100 mV, mean ± SEM; for Activity on NaV1.7 at a concentration of 10 µM: 10 µM peptide, HEK 293 cells (Figure 2A–C)
Protocol: We maintained human embryonic kidney (HEK) 293 cells at 37 °C in a humidified 5% CO2 incubator in Dulbecco’s Modified Eagle’s Medium (DMEM) supplemented with 10% fetal bovine serum (FBS), 2 mM L-glutamine, 100 units/mL penicillin and 100 µg/mL streptomycin. cDNA genes encoding rat Nav1.2 and mouse Nav1.6 were subcloned into the vectors pcDNA3.1, respectively. We subcloned the gene that encodes hNaV1.7 into the vector pcDNA3.1-mod. We transfected the hNaV1.7 channel (3 μg) together with plasmids β1- (1 μg) and β2-eGFP ([…]), which encode the human β1 and β2 subunits, and Nav1.2 and Nav1.6 together with eGFP in HEK 293 cells using Lipofectamine 2000 (Invitrogen, Carlsbad, CA, USA) per the manufacturer’s instructions.
We performed whole-cell recordings using an EPC 10 patch clamp platform (HEKA, Elektronik, Lambrecht, Germany) at room temperature (20–25 °C). We made suction pipettes with access resistance of 2.0–3.0 MΩ from borosilicate glass capillary tubes (VWR micropipettes; VWR Co., West Chester, PA, USA) using a 2-step vertical microelectrode puller (PC-10; Narishige Co., Ltd., Tokyo, Japan) and compensated for voltage errors using 80% serial-resistance compensation. The standard pipette solution contained (in mM): 140 CsCl, 10 NaCl, 1 ethylene glycol-bis (β-aminoethyl ether)-N,N,N′,N′-tetraacetic acid (EGTA), and 10 HEPES (pH 7.4). The bath solution contained (in mM): 140 NaCl, 2 CaCl2, 1 MgCl2, 5 KCl, 20 4-(2-hydroxyethyl)-1-piperazineethanesulfonic acid (HEPES) and 10 glucose (pH 7.4). We purchased all chemicals from Sigma-Aldrich (St. Louis, MO, USA) and dissolved them in water. Data were acquired using PATCHMASTER software version 2x73 (HEKA Elektronik Dr. Schulze GmbH, Lambrecht, Germany). We filtered macroscopic sodium currents at 5 kHz and sampled them at 20 kHz. We acquired voltage clamp recordings 5 min after establishing a whole-cell configuration to allow adequate equilibration between the micropipette solution and the cell interior. We elicited channel current by 50 milliseconds of depolarization potential to −10 mV from the holding voltage of −100 mV.
We analyzed the data using Igor Pro software version 6.10A (WaveMetrics, Lake Oswego, OR, USA), Sigmaplot software version 10 (Sigma, St. Louis, MO, USA), OriginPro software version 8 (OriginLab Corp., Northampton, MA, USA) and Prism software version 5 (GraphPad Software, San Diego, CA, USA). Concentration–response curves were fitted using the following Hill logistic equation:y = fmax − (fmax − fmin)/(1 + (x/IC50)^n)(1) where fmax and fmin respectively represent the channel’s maximum and minimum responses to toxins, fmin was set to 0, x represents toxin concentration and n is an empirical Hill coefficient. All quantitative results are presented as mean ± standard error of the mean (SEM).

T1 sequence (O60939 30-215): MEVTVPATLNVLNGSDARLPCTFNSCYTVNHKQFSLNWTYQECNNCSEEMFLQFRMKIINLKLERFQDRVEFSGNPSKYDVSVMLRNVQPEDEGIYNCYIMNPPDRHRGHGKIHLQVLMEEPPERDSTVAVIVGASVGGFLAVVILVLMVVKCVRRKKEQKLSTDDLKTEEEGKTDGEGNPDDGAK
T1 sequence (Q07699 19-218, further chain): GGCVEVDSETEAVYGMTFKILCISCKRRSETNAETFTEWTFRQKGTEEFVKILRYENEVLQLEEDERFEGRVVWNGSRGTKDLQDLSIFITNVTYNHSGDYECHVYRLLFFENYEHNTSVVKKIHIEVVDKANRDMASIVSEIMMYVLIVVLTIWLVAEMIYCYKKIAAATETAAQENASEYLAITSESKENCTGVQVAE
T1 sequence (Q15858 other isoform, or with tags, fused parts or gaps): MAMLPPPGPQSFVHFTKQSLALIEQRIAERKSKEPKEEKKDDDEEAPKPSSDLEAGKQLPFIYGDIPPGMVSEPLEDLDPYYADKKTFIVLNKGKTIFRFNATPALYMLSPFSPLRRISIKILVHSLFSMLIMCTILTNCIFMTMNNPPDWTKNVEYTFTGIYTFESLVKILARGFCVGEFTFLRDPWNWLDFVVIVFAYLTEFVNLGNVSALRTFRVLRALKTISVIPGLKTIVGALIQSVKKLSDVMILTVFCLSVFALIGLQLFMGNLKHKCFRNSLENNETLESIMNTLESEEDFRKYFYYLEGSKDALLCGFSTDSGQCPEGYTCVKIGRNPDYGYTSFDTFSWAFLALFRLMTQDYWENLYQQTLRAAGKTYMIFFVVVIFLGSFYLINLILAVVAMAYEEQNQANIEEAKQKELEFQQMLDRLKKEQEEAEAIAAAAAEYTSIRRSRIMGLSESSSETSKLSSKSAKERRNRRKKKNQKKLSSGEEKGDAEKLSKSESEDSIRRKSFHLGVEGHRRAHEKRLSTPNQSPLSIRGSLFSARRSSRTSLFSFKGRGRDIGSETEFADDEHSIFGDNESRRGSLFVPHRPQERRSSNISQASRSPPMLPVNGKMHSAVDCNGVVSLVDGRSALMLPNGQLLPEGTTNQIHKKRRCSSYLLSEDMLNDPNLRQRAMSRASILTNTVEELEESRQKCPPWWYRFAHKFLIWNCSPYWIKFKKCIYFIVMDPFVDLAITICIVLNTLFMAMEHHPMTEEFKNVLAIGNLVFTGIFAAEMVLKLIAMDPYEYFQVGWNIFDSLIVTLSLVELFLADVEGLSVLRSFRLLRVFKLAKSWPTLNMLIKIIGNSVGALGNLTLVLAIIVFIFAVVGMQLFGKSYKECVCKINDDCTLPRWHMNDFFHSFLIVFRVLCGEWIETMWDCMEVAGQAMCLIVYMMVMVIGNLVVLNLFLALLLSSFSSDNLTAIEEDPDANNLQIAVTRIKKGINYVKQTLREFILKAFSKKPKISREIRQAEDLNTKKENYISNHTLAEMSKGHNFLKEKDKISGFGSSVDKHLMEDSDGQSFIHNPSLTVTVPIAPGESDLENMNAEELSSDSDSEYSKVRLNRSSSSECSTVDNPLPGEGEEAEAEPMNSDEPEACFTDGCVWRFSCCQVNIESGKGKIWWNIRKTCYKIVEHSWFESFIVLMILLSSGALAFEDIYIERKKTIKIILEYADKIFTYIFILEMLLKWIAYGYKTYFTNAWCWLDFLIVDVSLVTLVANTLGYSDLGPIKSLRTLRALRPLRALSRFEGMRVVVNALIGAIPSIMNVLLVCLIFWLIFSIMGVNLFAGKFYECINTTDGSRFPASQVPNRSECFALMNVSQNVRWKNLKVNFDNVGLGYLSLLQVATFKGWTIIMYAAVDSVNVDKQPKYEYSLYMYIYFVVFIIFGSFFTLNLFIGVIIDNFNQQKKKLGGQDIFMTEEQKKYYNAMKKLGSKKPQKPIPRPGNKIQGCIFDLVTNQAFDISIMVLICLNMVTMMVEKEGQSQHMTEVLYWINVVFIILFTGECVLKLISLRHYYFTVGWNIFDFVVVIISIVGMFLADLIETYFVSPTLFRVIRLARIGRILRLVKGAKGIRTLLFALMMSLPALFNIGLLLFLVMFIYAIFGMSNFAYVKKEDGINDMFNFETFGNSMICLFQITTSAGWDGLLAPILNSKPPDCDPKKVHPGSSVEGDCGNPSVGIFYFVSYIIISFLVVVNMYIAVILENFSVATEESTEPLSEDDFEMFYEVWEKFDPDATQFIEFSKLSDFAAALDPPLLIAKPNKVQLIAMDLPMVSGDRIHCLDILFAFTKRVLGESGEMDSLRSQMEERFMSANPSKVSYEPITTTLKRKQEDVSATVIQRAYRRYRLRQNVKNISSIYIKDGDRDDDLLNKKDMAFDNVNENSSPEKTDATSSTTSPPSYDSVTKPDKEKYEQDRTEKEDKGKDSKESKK

Row | SMILES | IC50 (n ≥ 3, SEM) | Activity on NaV1.7 at a concentration of 10 µM | IC50 (n ≥ 3)
1 | CC(C)C[C@H](NC(=O)[C@H](CC(C)C)NC(=O)[C@@H](NC(=O)[C@H](CCCCN)NC(=O)[C@@H]1CSSC[C@@H]2NC(=O)[C@H](CCC(=O)O)NC(=O)[C@H](CC(N)=O)NC(=O)[C@H](CCCCN)NC(=O)CNC(=O)[C@@H]3CCCN3C(=O)[C@H](C(C)C)NC(=O)[C@@H]3CSSC[C@H](NC(=O)[C@H](C)NC(=O)[C@H](Cc4ccc(O)cc4)NC(=O)CNC(=O)[C@H](CO)NC(=O)[C@H](CSSC[C@H](NC(=O)[C@@H](N)CCC(=O)O)C(=O)N[C@@H](CCCCN)C(=O)NCC(=O)N[C@@H](Cc4ccccc4)C(=O)NCC(=O)N[C@@H](CCCCN)C(=O)N[C@@H](CO)C(=O)N3)NC2=O)C(=O)N[C@@H](CC(N)=O)C(=O)N[C@@H](CO)C(=O)N[C@@H](CCCNC(=N)N)C(=O)N[C@@H](Cc2c[nH]cn2)C(=O)N[C@@H](CCCCN)C(=O)N[C@@H](Cc2c[nH]c3ccccc23)C(=O)N1)C(C)C)C(=O)O [D26H] (H-ECKGFGKSCVPGKNECCSGYACNSRHKWCKVLL-OH; disulfide 2-17, 9-22, 16-29) | 1500 ± 93 nM | – | –
2 | CC(C)C[C@H](NC(=O)[C@H](CC(C)C)NC(=O)[C@@H](NC(=O)[C@H](CCCCN)NC(=O)[C@@H]1CSSC[C@@H]2NC(=O)[C@H](CCC(=O)O)NC(=O)[C@H](CC(N)=O)NC(=O)[C@H](CCCCN)NC(=O)CNC(=O)[C@@H]3CCCN3C(=O)[C@H](C(C)C)NC(=O)[C@@H]3CSSC[C@H](NC(=O)[C@H](C)NC(=O)[C@H](Cc4ccc(O)cc4)NC(=O)CNC(=O)[C@H](CO)NC(=O)[C@H](CSSC[C@H](NC(=O)CN)C(=O)N[C@@H](CCCCN)C(=O)NCC(=O)N[C@@H](Cc4ccccc4)C(=O)NCC(=O)N[C@@H](CCCCN)C(=O)N[C@@H](CO)C(=O)N3)NC2=O)C(=O)N[C@@H](CC(N)=O)C(=O)N[C@@H](CO)C(=O)N[C@@H](CCCNC(=N)N)C(=O)N[C@@H](CC(=O)O)C(=O)N[C@@H](CCCCN)C(=O)N[C@@H](Cc2c[nH]c3ccccc23)C(=O)N1)C(C)C)C(=O)O [E1G] (H-GCKGFGKSCVPGKNECCSGYACNSRDKWCKVLL-OH; disulfide 2-17, 9-22, 16-29 (inferred); N-terminus and C-terminus assumed) | – | negligible activity | > 10000 nM
3 | CC(C)C[C@H](NC(=O)[C@H](CC(C)C)NC(=O)[C@@H](NC(=O)[C@H](CCCCN)NC(=O)[C@@H]1CSSC[C@@H]2NC(=O)[C@H](CCC(=O)O)NC(=O)[C@H](CC(N)=O)NC(=O)[C@H](CCCCN)NC(=O)CNC(=O)[C@@H]3CCCN3C(=O)[C@H](C(C)C)NC(=O)[C@@H]3CSSC[C@H](NC(=O)[C@H](C)NC(=O)[C@H](Cc4ccc(O)cc4)NC(=O)CNC(=O)[C@H](CO)NC(=O)[C@H](CSSC[C@H](NC(=O)CN)C(=O)N[C@@H](CCCCN)C(=O)NCC(=O)N[C@@H](Cc4ccccc4)C(=O)NCC(=O)N[C@@H](CCCCN)C(=O)N[C@@H](CO)C(=O)N3)NC2=O)C(=O)N[C@@H](CO)C(=O)N[C@@H](CO)C(=O)N[C@@H](CCCNC(=N)N)C(=O)N[C@@H](Cc2c[nH]cn2)C(=O)N[C@@H](CCCCN)C(=O)N[C@@H](Cc2c[nH]c3ccccc23)C(=O)N1)C(C)C)C(=O)O [E1G–N23S–D26H] (H-GCKGFGKSCVPGKNECCSGYACSSRHKWCKVLL-OH; disulfide 2-17, 9-22, 16-29) | 179 ± 24 nM | – | –
4 | CC(C)C[C@H](NC(=O)[C@H](Cc1c[nH]c2ccccc12)NC(=O)[C@@H](NC(=O)[C@H](CCCCN)NC(=O)[C@@H]1CSSC[C@@H]2NC(=O)[C@H](CCC(=O)O)NC(=O)[C@H](CC(N)=O)NC(=O)[C@H](CCCCN)NC(=O)CNC(=O)[C@@H]3CCCN3C(=O)[C@H](C(C)C)NC(=O)[C@@H]3CSSC[C@H](NC(=O)[C@H](C)NC(=O)[C@H](Cc4ccc(O)cc4)NC(=O)CNC(=O)[C@H](CO)NC(=O)[C@H](CSSC[C@H](NC(=O)CN)C(=O)N[C@@H](CCCCN)C(=O)NCC(=O)N[C@@H](Cc4ccccc4)C(=O)NCC(=O)N[C@@H](CCCCN)C(=O)N[C@@H](CO)C(=O)N3)NC2=O)C(=O)N[C@@H](CO)C(=O)N[C@@H](CO)C(=O)N[C@@H](CCCNC(=N)N)C(=O)N[C@@H](Cc2c[nH]cn2)C(=O)N[C@@H](CCCCN)C(=O)N[C@@H](Cc2c[nH]c3ccccc23)C(=O)N1)C(C)C)C(=O)O [E1G–N23S–D26H–L32W] (H-GCKGFGKSCVPGKNECCSGYACSSRHKWCKVWL-OH; disulfide 2-17, 9-22, 16-29) | 36 ± 7 nM | – | –
5 | CC(C)C[C@H](NC(=O)[C@H](CC(C)C)NC(=O)[C@@H](NC(=O)[C@H](CCCCN)NC(=O)[C@@H]1CSSC[C@@H]2NC(=O)[C@H](CCC(=O)O)NC(=O)[C@H](CC(N)=O)NC(=O)[C@H](CCCCN)NC(=O)CNC(=O)[C@@H]3CCCN3C(=O)[C@H](C(C)C)NC(=O)[C@@H]3CSSC[C@H](NC(=O)[C@H](C)NC(=O)[C@H](Cc4ccc(O)cc4)NC(=O)CNC(=O)[C@H](CO)NC(=O)[C@H](CSSC[C@H](NC(=O)CN)C(=O)N[C@@H](CCCCN)C(=O)NCC(=O)N[C@@H](Cc4ccccc4)C(=O)NCC(=O)N[C@@H](CCCCN)C(=O)N[C@@H](CO)C(=O)N3)NC2=O)C(=O)N[C@@H](CC(N)=O)C(=O)N[C@@H](CO)C(=O)N[C@@H](CCCCN)C(=O)N[C@@H](Cc2c[nH]cn2)C(=O)N[C@@H](CCCCN)C(=O)N[C@@H](Cc2c[nH]c3ccccc23)C(=O)N1)C(C)C)C(=O)O [E1G–R25K–D26H] (H-GCKGFGKSCVPGKNECCSGYACNSKHKWCKVLL-OH; disulfide 2-17, 9-22, 16-29) | 766 ± 29 nM | – | –
6 | CC(C)C[C@H](NC(=O)[C@H](Cc1c[nH]c2ccccc12)NC(=O)[C@@H](NC(=O)[C@H](CCCCN)NC(=O)[C@@H]1CSSC[C@@H]2NC(=O)[C@H](CCC(=O)O)NC(=O)[C@H](CC(N)=O)NC(=O)[C@H](CCCCN)NC(=O)CNC(=O)[C@@H]3CCCN3C(=O)[C@H](C(C)C)NC(=O)[C@@H]3CSSC[C@H](NC(=O)[C@H](C)NC(=O)[C@H](Cc4ccc(O)cc4)NC(=O)CNC(=O)[C@H](CO)NC(=O)[C@H](CSSC[C@H](NC(=O)CN)C(=O)N[C@@H](CCCCN)C(=O)NCC(=O)N[C@@H](Cc4ccccc4)C(=O)NCC(=O)N[C@@H](CCCCN)C(=O)N[C@@H](CO)C(=O)N3)NC2=O)C(=O)N[C@@H](CC(N)=O)C(=O)N[C@@H](CO)C(=O)N[C@@H](CCCCN)C(=O)N[C@@H](Cc2c[nH]cn2)C(=O)N[C@@H](CCCCN)C(=O)N[C@@H](Cc2c[nH]c3ccccc23)C(=O)N1)C(C)C)C(=O)O [E1G–R25K–D26H–L32W] (H-GCKGFGKSCVPGKNECCSGYACNSKHKWCKVWL-OH; disulfide 2-17, 9-22, 16-29) | 669 ± 70 nM | – | –
7 | CC(C)C[C@H](NC(=O)[C@H](Cc1c[nH]c2ccccc12)NC(=O)[C@@H](NC(=O)[C@H](CCCCN)NC(=O)[C@@H]1CSSC[C@@H]2NC(=O)[C@H](CCC(=O)O)NC(=O)[C@H](CC(N)=O)NC(=O)[C@H](CCCCN)NC(=O)CNC(=O)[C@@H]3CCCN3C(=O)[C@H](C(C)C)NC(=O)[C@@H]3CSSC[C@H](NC(=O)[C@H](C)NC(=O)[C@H](Cc4ccc(O)cc4)NC(=O)CNC(=O)[C@H](CO)NC(=O)[C@H](CSSC[C@H](NC(=O)[C@@H](N)CCC(=O)O)C(=O)N[C@@H](CCCCN)C(=O)NCC(=O)N[C@@H](Cc4ccccc4)C(=O)NCC(=O)N[C@@H](CCCCN)C(=O)N[C@@H](CO)C(=O)N3)NC2=O)C(=O)N[C@@H](CC(N)=O)C(=O)N[C@@H](CO)C(=O)N[C@@H](CCCNC(=N)N)C(=O)N[C@@H](CC(=O)O)C(=O)N[C@@H](CCCCN)C(=O)N[C@@H](Cc2c[nH]c3ccccc23)C(=O)N1)C(C)C)C(=O)O [L32W] (H-ECKGFGKSCVPGKNECCSGYACNSRDKWCKVWL-OH; disulfide 2-17, 9-22, 16-29 (inferred); N-terminus and C-terminus assumed) | – | negligible activity | > 10000 nM

— paper PMC6162447, “Engineering Gain-of-Function Analogues of the Spider Venom Peptide HNTX-I, A Potent Blocker of the hNaV1.7 Sodium Channel” (Toxins, 2018)
